Columns and labels:
Assay type in all cases: cell-based
TGR4 [1] = molecular target: T1, TGR4 (Homo sapiens, UniProt Q9H1C0); experiment: Reporter gene (CRE-luciferase) expression level in cells with transient TGR4 expression; design: expressed in transfected cells; host or cells: CHO-mock cells (CHO(dhfr-) transformed with pAKKO-111H), transiently transfected with pAK-TGR4, pAK-Gi and pCRE-Luc; conditions: TGR4 gene-transfected CHO-mock cells (co-transfected with pAK-Gi and pCRE-Luc), 4 hours, FIG. 4
T1 sequence (Q9H1C0 whole entry): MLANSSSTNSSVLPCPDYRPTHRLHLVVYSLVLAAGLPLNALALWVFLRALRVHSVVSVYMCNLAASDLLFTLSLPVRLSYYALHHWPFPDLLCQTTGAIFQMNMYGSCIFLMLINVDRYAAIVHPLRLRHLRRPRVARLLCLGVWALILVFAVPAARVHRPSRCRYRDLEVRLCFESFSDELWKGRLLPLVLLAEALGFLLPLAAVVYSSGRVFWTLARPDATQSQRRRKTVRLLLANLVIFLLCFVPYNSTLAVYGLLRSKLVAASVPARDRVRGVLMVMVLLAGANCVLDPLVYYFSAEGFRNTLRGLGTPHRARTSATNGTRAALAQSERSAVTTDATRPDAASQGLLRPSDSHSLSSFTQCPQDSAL
From the text: TGR4 cDNA or inhibitory G protein α subunit Gi cDNA was inserted into the animal cell expression vector plasmid pAKKO-111H (the plasmid vector identical to the pAKKO-1.11H described in Biochim. Biophys. Acta, Hinuma, S., et al., 1219, 251-259, 1994) by publicly known methods. The expression vector plasmids pAK-TGR4 and pAK-Gi thus produced and pAKKO-111H without any particular gene inserted were transfected to CHO cells by the following procedures.
First, using these vectors, Escherichia coli JM109 was transformed; after the colony obtained was isolated and incubated, a plasmid was prepared using QIAGEN Plasmid Maxi Kit (Qiagen, Inc.). […]
Geranylgeranyl diphosphate (GGPP, Sigma, Inc.), farnesyl diphosphate (FPP, Sigma, Inc.) and lysophosphatidic acid (LPA, Sigma, Inc.) were diluted in the assay buffer, respectively, and each dilution was added to the transfected CHO-mock cells described above in a concentration of 1, 0.1 and 0.01 μM, followed by incubation at 37° C. for 4 hours under 5% CO2. The culture supernatant was discarded and 50 μl of a substrate for assaying an luciferase activity or PicaGene LT 2.0 (Toyo Ink Mfg. Co., Ltd.) was added, and the luminescence amount of luciferase was assayed by using a plate reader (ARVO sx multi-label counter, Walac, Inc.).

TGR4 [2] = molecular target: T1, TGR4; experiment: Intracellular cAMP production amount in TGR4-expressed CHO cells; design: expressed in transfected cells; host or cells: CHO cells stably expressing TGR4 (CHO-TGR4); conditions: 2 μM; CHO-TGR4 compared with CHO-mock cells; 30 minutes at 37° C.; n is 3; FIGS. 7 and 8
Protocol: CHO-mock cells with neither CHO-TGR4 nor receptor gene introduced, which were prepared in EXAMPLE 4, were plated in a 96-well plate (Beckton-Dickinson, Inc.) in 25,000 cells/well, followed by incubation overnight at 37° C. under 5% CO2. This culture solution was used for assay. A sample buffer used was HBSS supplemented with 0.1% BSA and 0.2 mM I BMX (Sigma, Inc.). The cells were washed twice with the sample buffer and pre-incubated at 37° C. for 30 minutes. The cells were further washed twice and the sample was added thereto followed by incubation at 37° C. for 30 minutes. The sample was added in 2 μM of farnesyl diphosphate or lysophosphatidic acid. After incubation in the presence of the sample, the amount of intracellular cAMP production was assayed by using cAMP Screen System (ABI).

TGR4 [3] = molecular target: T1, TGR4; experiment: Intracellular calcium ion mobilization activity in TGR4-expressed CHO cells (FLIPR); design: expressed in transfected cells; host or cells: CHO cells stably expressing TGR4 (CHO-TGR4); conditions: 2.5 μM; CHO-TGR4 compared with CHO-mock cells; about 3 minutes after addition; FIGS. 5 and 6
Protocol: Using the plasmids for TGR4 expression prepared in EXAMPLE 3, CHO-TGR4 as CHO cells for stable TGR4 expression was prepared by a publicly known method. CHO-mock cells with neither CHO-TGR4 nor receptor gene introduced were plated in a 96-well black plate (Costar, Inc.) with the clear bottom in a concentration of 3000 cells/well, and cultured overnight at 37° C. under 5% CO2. The culture solution was used for assay. A wash buffer was prepared by adding 20 mM HEPES, pH 7.4 and 2.5 mM probenecid (Sigma, Inc.) to Hank's balanced salt solution (HBSS, Gibco BRL, Inc.). As a sample buffer, the wash buffer supplemented with 0.1% bovine serum albumin (BSA, Sigma, Inc.) was used. As a dye loading solution there was used a mixture prepared by adding 1% FBS, 4 μM Fluo 3-AM (Wako Pure Chemical Industry Co., Ltd.) and 0.04% Pluronic acid (Molecular Probes, Inc.) to the wash buffer. The medium of the cells was discarded and the dye loading solution was added. After incubation at 37° C. for an hour, the cells were washed with the wash buffer using a plate washer. The cells were set on Fluorometric Imaging Plate Reader (FLIPR, Molecular Devices, Inc.) and a change of the intracellular calcium ion level was measured for about 3 minutes after addition of the sample. As the sample, FPP or LPA was added in a concentration of 2.5 μM.

Row | amount of intracellular cAMP production (TGR4 [2]) | intracellular calcium ion mobilization activity (TGR4 [3]) | luciferase activity (TGR4 [1]; 1 μM) | Compound | luciferase activity (TGR4 [1]; 1 and 0.1 μM)
1 |  |  |  | CC(C)=CCC/C(C)=C/CC/C(C)=C/CC/C(C)=C/COP(=O)(O)OP(=O)(O)O [GGPP, Geranylgeranyl diphosphate] | increased luciferase activity
2 | increased specifically to CHO-TRG4 | increased specifically to CHO-TRG4 | increased luciferase activity | lysophosphatidic acid [LPA] | 

Source: patent US20030113321A1, “Novel G-protein-coupled receptor protein and its DNA” (priority 2000, published 2003)
